Assays:
[1] = Quantitation of skeletal uptake by rib fluorescence intensity
Protocol: However, we were able to estimate skeletal uptake by measuring fluorescence intensity of the ribs in the skinless animal. Calibration standards matching the geometry of the ribs were placed next to the animal and mean fluorescence intensities of each standard and the caudal three ribs on each side were measured.

[2] = Spectral measurements (absorbance, fluorescence); type: physicochemical
Protocol: Spectral Measurements. Absorbance measurements and scans were performed on a Model DU-600 spectrophotometer (Beckman, Fullerton, Calif.) using 1 μM of each compound in 20 mM N-ethylmorpholine (NEM), pH 7.4 and 150 mM KCl (NK buffer). Fluorescence measurements, and excitation/emission scans were performed on a SPECTRAmax Gemini XS microplate reader (Molecular Devices, Sunnyvale, Calif.) using Model 655076 black 96-well plates (Greiner, Lake Mary, Fla.), and […] of each compound in NK buffer. Curves were analyzed using SOFTmax PRO software (Molecular Devices, Sunnyvale, Calif.) and plotted using Prism3 for the Macintosh (GraphPad Software, Inc., San Diego, Calif.).

[3] = Kinetic binding to hydroxyapatite crystals; conditions: 5 μM compound, 37° C.
Protocol: In Vitro Hydroxyapatite Binding Experiments. For kinetic measurements of binding to HA, 5 μM Pam78 or the carboxylic acid of IRDye78 was added from a 20× stock solution to 100 μl NK buffer containing 1.5 mg/ml (1.5 mM) HA. Suspensions were continuously vortexed at 37° C. for the time indicated. Bound and unbound material was separated using a 0.2 μm filter in a 96-well format (Model MAGVN2210, Millipore, Bedford, Mass.), and the concentration of material in the filtrate was measured using the SPECTRAmax Gemini XS fluorescence microplate reader set for an excitation wavelength of 771 nm and an emission wavelength of 796 nm. Bound material was calculated by subtracting unbound compound from the total added to each reaction.

[4] = Serum concentration after intravenous injection (plasma elimination); conditions: 2.6 nmol intravenous, tail vein
Protocol: Hairless 7 week old male nu/nu mice (Charles River Laboratories, Wilmington, Mass.; average weight 25 g) were anesthetized with 50 mg/kg i.p. pentobarbital. The lateral tail vein was visualized using a flashlight and 2.6 nmol of compound resuspended in 80 μl of phosphate buffered saline (PBS) was injected using a bent, 30 gauge, ½″ needle. For measurement of plasma concentration, the tip of the tail of an anesthetized animal was cut with a razor blade, and 75 μl of whole blood was milked, and collected with a capillary tube. After clotting and removal of cells by centrifugation, serum was diluted 1:10 in 50 mM Hepes, pH 7.4 and a wavelength scan from 400 nm to 850 nm was performed. Serum concentration was determined by peak height at 771 nm after subtraction of background (pre-injection serum), and correction for hemoglobin absorbance.

[5] = In vivo near-infrared fluorescence imaging of HA
Protocol: Compound Injection and Measurement of Serum Concentration. Hairless 7 week old male nu/nu mice (Charles River Laboratories, Wilmington, Mass.; average weight 25 g) were anesthetized with 50 mg/kg i.p. pentobarbital. The lateral tail vein was visualized using a flashlight and 2.6 nmol of compound resuspended in 80 μl of phosphate buffered saline (PBS) was injected using a bent, 30 gauge, ½″ needle.

[6] = rats; cited from earlier work
[7] = Competition of Pam78 binding to HA by unlabeled pamidronate; conditions: 80 nmol (800 μM) unlabeled pamidronate; 2.5 μM Pam78; 1.5 mg/ml HA; three hours
Protocol: For competition experiments, free pamidronate was pre-incubated in 100 μl NK buffer with 1.5 mg/ml (1.5 mM) HA for five minutes at room temperature with continuous vortexing. Pam78 was then added from a 20× stock solution to a final concentration of 2.5 μM. Incubation at 37° C. with continuous vortexing continued for three hours prior to filtration and measurement as described above.

CC1(C)C(/C=C/C2=C(Oc3ccc(CCC(=O)NCCC(O)(P(=O)([O-])O)P(=O)(O)O)cc3)C(=C\C=C3/N(CCCCS(=O)(=O)O)c4ccc(S(=O)(=O)O)cc4C3(C)C)/CCC2)=[N+](CCCCS(=O)(=O)O)c2ccc(S(=O)(=O)O)cc21 (centres unmarked) [Pam78]
concentration in ribs (mean±S.E.M.) ([1]; caudal three ribs on each side, skinless animal, 2.6 nmol injected): 910 ± 27 nM
skeletal uptake, percentage of injected dose ([1]; out of 2.6 nmol injected): 57%
amount bound to the skeleton ([1]; out of 2.6 nmol injected, assuming bone density 1.8 g/cm^3, skeletal weight 11.8% body weight): 1.5 nmol
peak absorption ([2]; 1 μM in NK buffer): unchanged from IRDye78
peak emission ([2]; excitation fixed at 771 nm, NK buffer): 796 nm
time to asymptotic binding to HA ([3]; 1.5 mg/ml HA): ≤ 1 h
percent of peak binding to HA achieved ([3]; five minutes, 1.5 mg/ml (1.5 mM) HA, NK buffer): 37%
early half-life of elimination from plasma [4]: 5.0 min
late half-life of elimination from plasma [4]: 15.4 min
time at which uptake in spine, ribs, paws and knees is detected above background ([5]; 2.6 nmol intravenous): 15 min
time by which phalanges, wrist, skull, pelvis, femur and ankle become visible ([5]; 2.6 nmol intravenous): ≤ 3 h
stability in vivo (skeletal signal) ([5]; twelve hours post-injection): no degradation of skeletal signal

O.O.O=P([O-])([O-])CP(=O)([O-])[O-].[99Tc+4] [^99mTc-MDP]
skeletal uptake [6]: 52%

NCCC(O)(P(=O)(O)O)P(=O)(O)O [pamidronate]
inhibition of Pam78 binding to HA [7]: 90%

Reference: US6869593B2, “Non-isotopic detection of osteoblastic activity in vivo using modified bisphosphonates” (Beth Israel Deaconess Medical Center, priority 2000, dated 2005)
